US6770740B1, “Crosslinked DNA condesate compositions and gene delivery methods” (The Regents of the University of Michigan, priority 1999, dated 2004)
Where a SMILES comes first, the peptide text is derived from it.

Tests used:
[1] = QELS particle size and zeta potential of cross-linking peptide DNA condensates, Example 5; format: physicochemical
Method: The particle size of each peptide DNA condensate was determined by quasielastic light scattering (QELS) at a scatter angle of both 15° and 90° on a Brookhaven ZetaPlus™ particle sizer. Condensates were prepared at a DNA concentration of 50 μg/ml in 400 μl HBM at a stoichiometry of 0.4 nmol of peptide per μg of DNA corresponding to a charge ratio of approximately 2:1 for each. The mean diameter and population distribution were computed from the diffusion coefficient using a unimodal cummulant analysis supplied by the manufacturer.
The particle size and zeta peptide IV DNA condensates were determined by titrating 7.5 to 37.5 nmol of peptide with 75 μg of DNA in 1.5 ml of HBM to produce 50 μg/ml DNA condensates with charge ratio of 0.5-2.5. The zeta potential was averaged from 10 determines.

[2] = Kinetics of peptide oxidation (disulfide bond formation) in solution by ES-MS; format: physicochemical; settings: pH 7.5, free in solution
Method: The kinetics of disulfide bond formation in solution was monitored by […]. […] Single ion monitoring (SIM) scans were taken at 20 sec intervals over 2 h while monitoring the disappearance of the M+2H^+ parent ion (1258 amu) and formation of the M+2H^+ ion of the oxidized species (1256 amu).

plasmid DNA [3] = experiment: Kinetics of peptide cross-linking on DNA (SYBR-Gold fluorescence), Example 5; format: physicochemical; settings: charge ratio 2:1
Method: The kinetics of cross-linking within peptide DNA condensates was studied indirectly by monitoring the displacement of SYBR-Gold™ intercalator dye from DNA condensates as a function of time. Peptide DNA condensates were prepared (200 μl of 50 μg/ml) at a peptide stoichiometry of 0.4 nmol per μg of DNA. Immediately after mixing peptide and DNA, a 10 μl aliquot was combined with 990 μl of SYBR-Gold™ (1X) and the fluorescence intensity (Ex 495 nm, Em 537 nm) was continuously monitored for 30 min.
The rate of cross-linking was also examined as a function of peptide concentration. The stoichiometry of peptide IV was increased from 0.4 to 1.2 nmol per μg of DNA and the rate of declining fluorescence intensity was determined as described above.

[4] = Shear stress stability of cross-linked DNA condensates (salt sonication), Example 5; format: physicochemical
Method: Peptide DNA condensates (200 μl of 50 μg/ml) were formed and incubated at RT for 30 min and then combined with 0 to 200 μl of 5 M sodium chloride and normalized to 400 μl with HBM to achieve a final sodium chloride concentration of 0, 0.2, 0.4, 0.8, 1.0, 1.5, 2.0, and 2.5 M. Each sample was sonicated for 30 sec with a 100 W Microson™ XL-2000 ultrasonic probe homogenizer (Kontes, Vineland N.J.) with a vibrational amplitude of 6 to fragment uncondensed DNA (Adami et al., 1998). DNA condensates were digested with 30 μg of trypsin for 12 h at 37° C. then electrophoresed on an agarose gel and visualized by ethidium bromide staining.

glutathione reductase = molecular target: T1, glutathione reductase (Homo sapiens, UniProt P00390); settings: challenged with glutathione reductase; Drummer et al., 1987; cited from earlier work
T1 sequence (P00390 44-522): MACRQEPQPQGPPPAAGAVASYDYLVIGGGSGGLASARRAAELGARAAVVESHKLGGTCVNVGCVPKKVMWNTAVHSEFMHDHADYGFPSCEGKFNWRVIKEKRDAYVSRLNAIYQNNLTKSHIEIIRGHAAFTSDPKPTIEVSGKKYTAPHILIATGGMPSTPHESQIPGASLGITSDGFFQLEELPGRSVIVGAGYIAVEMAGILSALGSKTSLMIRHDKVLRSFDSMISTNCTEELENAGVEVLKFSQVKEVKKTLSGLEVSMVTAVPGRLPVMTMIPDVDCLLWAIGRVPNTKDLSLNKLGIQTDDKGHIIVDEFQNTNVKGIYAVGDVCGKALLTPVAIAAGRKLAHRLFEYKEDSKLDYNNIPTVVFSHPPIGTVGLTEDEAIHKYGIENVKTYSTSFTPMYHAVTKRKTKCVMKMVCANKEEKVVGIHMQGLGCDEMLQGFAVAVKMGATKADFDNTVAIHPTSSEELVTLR

CHO cells = experiment: Luciferase gene expression in CHO cells, Example 6; format: cell-based; settings: 80 μM chloroquine
plasmid DNA [5] = experiment: Thiazole orange displacement titration of peptide binding to DNA, Example 6; settings: titration across charge ratios 0.25-8
Method: Peptide DNA condensates were prepared by combining 50 μg of DNA in 500 μl of Hepes buffered mannitol (HBM) (5 w/v% mannitol, 5 mM Hepes, pH 7.5) with […] of peptide in 500 μl of HBM while vortexing to form peptide DNA condensates with a calculated primary amine to phosphate charge ratio between 0.25 and 8.0 (NH4^+:PO4). The condensates were allowed to cross-link for 30 min prior to performing physical measurements. The binding of each peptide to DNA was assayed by combining peptide DNA condensates (50 μl) with 950 μl of HBM containing 0.1 μM thiazole orange. The fluorescence of the intercalated dye was measured using an LS50B fluorometer (Perkin Elmer, UK) by exciting at 500 nm while monitoring emission at 530 nm with the slit width set at 15 and 20 nm, respectively. Fluorescence blanks were substracted from all values before data analysis.

[6] = QELS particle size and zeta potential of peptide DNA condensates, Example 6; format: physicochemical; settings: charge ratio 4:1, 50 μg/ml DNA in HBM; for Particle Size (nm): 90°, average and SD of three, No particles formed; for Zeta Potential (mV): average and SD of ten
Method: The particle size and zeta potential of peptide DNA condensates were determined by quasielastic light scattering (QELS) using a Brookhave ZetaPlus™. Particle size analysis was performed in triplicate at a DNA concentration of 50 μg/ml in HBM at a charge ratio of 4:1 and a scattering angle of 90°. Data analysis utilized a multimodal volume distribution option included with the instrument. Zeta potential was also determined using 50 μg/ml peptide DNA condensates prepared at a 4:1 charge ratio in HBM. The reported zeta potential was averaged from ten determinations.

COS 7 cells = experiment: Luciferase gene expression in COS 7 cells, Example 6; format: cell-based; settings: COS 7, 80 μM chloroquine
[7] = Shear stress stability (salt sonication assay), Example 6; format: physicochemical; settings: 30 sec sonication
Method: The relative stability of peptide DNA condensates were examined using a salt sonication assay (Adami and Rice, 1999). Peptide DNA condensates (200 μl of 50 μg/ml) were formed as described above, incubated at RT for 30 min and then combined with 0-200 μl of 5 m […] and normalized to 400 μl with HBM to achieve a final sodium chloride concentration of 0, 0.2, 0.4, 0.8, 1.0, 1.5, 2.0 and 2.5 M. Each sample was sonicated for 30 sec with a 100 W Microson™ XL-2000 ultrasonic probe homogenizer (Kontes, Vineland N.J.) with a vibrational amplitude of 5 fragment uncondensed DNA. DNA condensates were digested with 30 μg to trypsin for 12 h at 37° C., electrophoresed on a 1% agarose gel electrophoresed in TEA buffer for 2 h, then visualized by ethidium bromide staining and destaining prior to photography on a transilluminator.

plasmid DNA [8] = experiment: Kinetics of peptide cross-linking on DNA (SYBR-Gold), Example 6; format: physicochemical; settings: charge ratio 4:1
Method: The kinetics of disulfide bond formation of peptides bound to DNA was analyzed indirectly by monitoring the displacement of SYBR-Gold™ from DNA condensates. Peptide DNA condensates were formed by combining 20 μg of DNA in 500 μl of HBM containing 1× SYBR-Gold™ with 500 μl (26-52 nmol) of peptide in HBM containing 1 × SYBR-Gold to achieve a charge ratio of 4:1 (NH4^+:PO4). The fluorescence intensity (Ex 495 nm, Em 600 nm) was continuously monitored for 30 min to determine kinetics of cross-linking.

HepG2 cells = experiment: Luciferase gene expression in HepG2 cells, Example 6; format: cell-based; settings: HepG2, absence of chloroquine
Method: HepG2 cells (1.5×10^5) were plated on 6×35 mm wells and grown to 50% confluencey in MEM supplemented with 10% FBS, penicillin and streptomycin (100 U/ml), sodium pyruvate (100 mM), and L-glutamine (2 mM). Transfections were performed in MEM (2 ml per 35 mm well) with 2% FBS with and without 80 μM chloroquine. Peptide DNA condensates (10 μg of DNA of 0.2 ml HBM) were added dropwise to triplicate wells. After a 5 h incubation at 37° C., the medium was replaced with MEM supplemented with 10% FBS. After 24 h, cells were washed with ice-cold phosphate buffered saline (calcium and magnesium free) and then treated with 0.5 ml of ice-cold lysis buffer (25 mM) Tris chloride pH 7.8, 1 mM EDTA, 8 mM magnesium chloride, 1% Triton X-100, 1 mM DTT) for 10 min. The cell lysates were scraped, transferred to 1.5 ml microcentrifuge tube, and centrifuged for 7 min at 13,000 g at 4° C. to pellet debris.
Lysis buffer (300 μl), sodium-ATP (4 μl of a 180 mM solution, pH 7, 4° C.) and cell lysate (100 μl, 4° C.) were combined in a test tube, briefly mixed and immediately placed in the luminometer. Luciferase relative light units (RLU) were recorded on a Lumat™ LB 9501 (Berthoid Systems, Germany) with 10 sec integration after automatic injection of 100 μl of 0.5 mM D-luciferin (prepared fresh in lysis buffer without DTT). The RLU were converted into fmol using a standard curve generated by adding a known amount of luciferase (0.01 to 100 fmols with specific activity of 2.5 nU/fmol) to 35 mm wells containing 50% confluent cells and lysis buffer. Protein concentrations were measured by Bradford assay using bovine serum albumin as a standard (Bradford, 1976). […]
LipofectAce™ (Gibco BRL, 1:2.5 w/w dimethyl dioctadecylammonium bromide and dioleoyl phosphatidylethanolamine) was used to mediate gene transaction according to the manufacturer's instructions. […] The cells were incubated for a total of 24 h, harvested and analyzed for luciferase as described above.

NCCCC[C@H](NC(=O)[C@H](CCCCN)NC(=O)[C@H](CCCCN)NC(=O)[C@H](CCCCN)NC(=O)[C@H](CS)NC(=O)[C@H](CCCCN)NC(=O)[C@H](CCCCN)NC(=O)[C@H](CCCCN)NC(=O)[C@H](CS)NC(=O)[C@H](CCCCN)NC(=O)[C@H](CCCCN)NC(=O)[C@H](CCCCN)NC(=O)[C@H](CS)NC(=O)[C@H](CCCCN)NC(=O)[C@H](CCCCN)NC(=O)[C@H](CCCCN)NC(=O)[C@H](CCCCN)NC(=O)[C@H](Cc1c[nH]c2ccccc12)NC(=O)[C@@H](N)CS)C(=O)N[C@@H](CS)C(=O)O [V, Cys-Trp-Lys4-Cys-Lys3-Cys-Lys3-Cys-Lys4-Cys] (H-CWKKKKCKKKCKKKCKKKKC-OH; N-terminus and C-terminus assumed)
Particle Size Mean Diameter, Oxidized, 15° ([1]; HBM after 2 h incubation, 50 μg/ml DNA, 0.4 nmol peptide per μg DNA, scattering angle 15°): 41 nm | Particle Size Mean Diameter, Oxidized, 90° ([1]; HBM after 2 h incubation, 50 μg/ml DNA, 0.4 nmol peptide per μg DNA, scattering angle 90°): 57 nm | Particle Size Mean Diameter, Saline ([1]; HBM with added saline (0.15 M) after 15 min): 93 nm | Particle Size Mean Diameter, Reduced ([1]; following addition of TCEP (1 mM)): 171 nm | half-life at 100 µM ([2]; methanol/ammonium acetate solution, read-out: t½ of disappearance of the parent ion (intra-molecular disulfide formation)): ~10 min | time to complete disappearance of the parent ion [2]: ≤ 25 min | time of inter-peptide cross-linking on DNA (plasmid DNA [3]): less than 30 min | sodium chloride concentration of DNA condensate stability after reduction ([4]; DNA condensates reduced with TCEP): 0.4 M | sodium chloride concentration above which DNA was not protected, pre-oxidized peptide ([4]; peptide fully oxidized prior to making DNA condensates): 0.4 M

CC(C)(SSC(C)(C)C(N)C(=O)O)C(N)C(=O)O (stereo not shown) [Penicillamine disulfide]
stability relative to cystine (glutathione reductase): approximately 26 fold

Cys-(Lys)4-Cys (CKKKKC) [Peptide 5]
gene expression relative to peptide 3, 6 and 7 (CHO cells): three-orders of magnitude lower | charge ratio (NH4+:PO4) needed to condense DNA (thiazole orange fluorescence minimum) (plasmid DNA [5]): 3 | Particle Size (nm) [6]: 38 ± 10 nm

Cys-(Lys)8-Cys (CKKKKKKKKC) [Peptide 7]
lower gene expression relative to peptide 3, 5 and 6 DNA condensates (COS 7 cells): 5 fold | charge ratio (NH4+:PO4) needed to condense DNA (thiazole orange fluorescence minimum) (plasmid DNA [5]): 2 | sodium chloride concentration at which DNA condensates dissociate [7]: 0.8 to 1 M | Particle Size (nm) [6]: 53 ± 16 nm | Zeta Potential (mV) [6]: 26 ± 2 mV

Cys-(Lys)4-His-(Lys)3-Cys (CKKKKHKKKC) [Peptide 12]
time to completion of cross-linking on DNA (SYBR-Gold asymptote) (plasmid DNA [8]): less than 10 min | Particle Size (nm) [6]: 87 ± 20 nm | Zeta Potential (mV) [6]: 30 ± 2 mV | higher gene expression compared to peptide 7 DNA condensates (HepG2 cells): 3 fold
